In paper PMC4746387, “A Bioactivity-Based Method for Screening, Identification of Lipase Inhibitors, and Clarifying the Effects of Processing Time on Lipase Inhibitory Activity of Polygonum Multiflorum” (Evidence-based Complementary and Alternative Medicine : eCAM, 2016):
Where two headings read alike, the source gives them in different places.

Assays:
lipase [1] = biological target: T1, lipase (Sus scrofa, UniProt P00591); assay: Lipase inhibitory activity of enriched UHPLC fractions of P. multiflorum extract and their contribution to total activity (orlistat potency units); assay type: biochemical; conditions: for lipase inhibitory effect of fractions of peaks: fractions of P. multiflorum extract enriched for 40 and 60 times, Figure 1; for contribution to the total lipase inhibitory activity: potency of individual fraction/total lipase inhibitory × 100%, orlistat equivalent potency units
T1 construct: purchased Solar Bio Science Co. Ltd. (Beijing, China) L3126
T1 sequence (P00591 1-450): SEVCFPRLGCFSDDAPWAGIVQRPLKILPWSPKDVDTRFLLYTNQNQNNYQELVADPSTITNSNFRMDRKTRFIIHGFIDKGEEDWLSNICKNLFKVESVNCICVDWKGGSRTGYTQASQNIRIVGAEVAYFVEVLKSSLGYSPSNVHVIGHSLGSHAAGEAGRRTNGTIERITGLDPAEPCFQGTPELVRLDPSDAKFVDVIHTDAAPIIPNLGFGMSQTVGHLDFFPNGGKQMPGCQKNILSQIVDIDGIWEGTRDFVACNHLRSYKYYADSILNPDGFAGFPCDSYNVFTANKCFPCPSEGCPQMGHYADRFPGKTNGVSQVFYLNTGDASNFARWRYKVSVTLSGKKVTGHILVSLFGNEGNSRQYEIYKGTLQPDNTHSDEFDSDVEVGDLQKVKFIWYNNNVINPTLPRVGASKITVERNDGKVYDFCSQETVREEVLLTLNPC
Protocol: When the P. multiflorum extract was injected into the UHPLC system, the fraction collector (BSZ-100, Shanghai QingpuHuxi Instrument, Shanghai, China) was used for the fraction collection by setting the time interval at 20 s. Then, the fractions were collected and evaporated to dryness by nitrogen gas. The residues were reconstituted and diluted for bioassays.
(§1) The assay of lipase was performed according to previous method with slight modifications. 25 μL test samples and 25 μL lipase solution were mixed together. Then, 50 μL 4-methylumbelliferyl oleate was added to the mixture. After incubating at 25°C for 20 min, 100 μL sodium citrate (0.1 M, pH 4.2) was added to stop the reaction. Finally, the amount of 4-methylumbelliferone released by lipase was measured by microplate reader at an excitation wavelength of 355 nm and an emission wavelength of 460 nm. The inhibitory activity was calculated by the formula: inhibition (%) = [1 − (A sample/A control)] × 100, where A sample and A control were absorbance of the test sample and the control, respectively.
The extract was injected in UHPLC for the separation of the components and all fractions were collected for the bioassays. The lipase inhibitory effect was expressed as inhibition ratio (%), which could be calculated by the above mentioned formula. The time interval of fraction collector was set at 20 s according to the resolution and peak shape in the chromatogram. […] The fractions from the same peak were combined.
The potency calibration curve was constructed by plotting the potency (y) against the corresponding inhibition ratio (x). […] Then, the potency of the enriched fractions was determined by the curve mentioned above. […] The contribution of individual fractions was calculated by the formula: contribution (%) = potency of individual fraction/the total lipase inhibitory × 100%.

lipase [2] = biological target: T1, lipase; assay: Assay for lipase inhibitory activity (4-methylumbelliferyl oleate substrate, fluorescence of 4-methylumbelliferone); assay type: biochemical; conditions: for lipase inhibition ratio: at the concentration of 1.0 mg/mL; for IC50: reference standards (purity > 98%), eight diluted concentrations, 25°C, 20 min
Protocol: 4-Methylumbelliferyl oleate (4.406 mg) was accurately weighed and dissolved by Tris-HCl solution (pH 8.0, 1.3 mM NaCl, and 1.3 mM CaCl2) with the final concentration of 0.1 mM. 100 mg lipase was dissolved with deionized water and the insoluble substances were removed by centrifugation at 14,000 rpm for 10 min. Finally, the concentration of enzyme solution was 1.0 mg/mL.
Gallic acid, catechin, epicatechin, polydatin, 2,3,5,4′-tetrahydroxystilbene-2-O-β-D-glucoside, resveratrol, emodin-8-O-glucoside, physcion-8-O-glucoside, rhein, emodin, and physcion with the concentration of 1.0 mg/mL were prepared in methanol for quality control. Rhein, emodin, and physcion were dissolved in DMSO (Dimethyl Sulfoxide) with suitable concentrations. The reference standards solution was diluted serially with 10% methanol for the bioassays. The concentrations of DMSO in a series of samples at different concentrations were less than 0.1% (v/v). […] It was prepared with 10% methanol and diluted to a series of different concentrations.
as §1
In the bioassay experiments, all the analysis was carried out in triplicate. All values were expressed in the form of mean ± standard deviation (SD); IC50 values were determined by Graph Pad Prism 5 software.

[3] = read-out: IC50 (μg/mL) (converted)

Row | Structure (SMILES) | lipase inhibitory effect of fractions of peaks (lipase [1]) | lipase inhibition ratio (lipase [2]) [%] | contribution to the total lipase inhibitory activity (lipase [1]) | IC50 (lipase [2]; [3]) [mM] | IC50 (lipase [2]) [µg/mL]
1 | O=C(O)c1cc(O)c(O)c(O)c1 [Gallic acid] | relatively weak inhibitory effect | ≤ 50 | – | – | –
2 | OC[C@H]1O[C@@H](Oc2cc(O)cc(/C=C/c3ccc(O)cc3)c2)[C@H](O)[C@@H](O)[C@@H]1O [Polydatin] | relatively weak inhibitory effect | – | – | – | –
3 | Cc1cc(O)c2c(c1)C(=O)c1cc(O)cc(O)c1C2=O [Emodin] | strong inhibition | – | less than 10% | 1.29 | –
4 | Oc1cc(O)c2c(c1)O[C@H](c1ccc(O)c(O)c1)[C@H](O)C2 [Epicatechin] | relatively weak inhibitory effect | ≤ 50 | – | – | –
5 | COc1cc(O)c2c(c1)C(=O)c1cc(C)cc(O)c1C2=O [Physcion] | strong inhibition | – | less than 10% | 2.86 | –
6 | Oc1ccc(/C=C/c2cc(O)cc(O)c2)cc1 [Resveratrol] | strong inhibition | – | – | 2.47 | –
7 | O.Oc1cc(O)c2c(c1)O[C@H](c1ccc(O)c(O)c1)[C@@H](O)C2 [Catechin] | relatively weak inhibitory effect | ≤ 50 | – | – | –
8 | O=C(O)c1cc(O)c2c(c1)C(=O)c1cccc(O)c1C2=O [Rhein] | strong inhibition | – | – | 0.813 | –
9 | COc1cc(O)c2c(c1)C(=O)c1cc(C)cc(OC3OC(CO)C(O)C(O)C3O)c1C2=O (stereo not shown) [Physcion-8-O-glucoside] | strong inhibition | – | – | – | 421.5
10 | Cc1cc(O[C@@H]2O[C@H](CO)[C@@H](O)[C@H](O)[C@H]2O)c2c(c1)C(=O)c1cc(O)cc(O)c1C2=O [Emodin-8-O-glucoside] | strong inhibition | – | less than 10% | – | 296.0
